In patent US8541167B2 (priority 2004, dated 2013):
Read-outs that look alike come from different tables or passages of the source.

Experiments:
orthopoxvirus = system: orthopoxvirus; set-up: species or system A/NCr mice; conditions: mouse, in vivo
[1] = system: live vaccinia virus (Dryvax); set-up: species or system A/NCr mice; conditions: mouse, in vivo
[2] = in vivo; cited from earlier work

Molecule | post challenge anti-orthopoxvirus antibody titers, presence vs absence of CDV (orthopoxvirus) | pre-challenge anti-orthopoxvirus antibody titers, presence vs absence of CDV (orthopoxvirus) | Lesion score [1] | severity of vaccine lesions and healing [1] | Lesion score ([1]; 12.5 mg/kg) | oral bioavailability [2] | attenuation of lesion development and acceleration of lesion resolution, compared with CDV [1]
Nc1ccn(C[C@@H](CO)OCP(=O)(O)O)c(=O)n1 [Cidofovir] | similar | lower | 0 | decreased the severity of vaccine lesions and facilitated healing | 0 | low | 
hexadecyloxypropyl-CDV [HDP-CDV] |  |  |  | decreased the severity of vaccine lesions and facilitated healing |  |  | more efficacious than CDV
